Measured values reported in patent US12337022B2, “Use of a vegetable extract from salvia haenkei as an active agent in the treatment of heart diseases” (Altergon S.A., priority 2021, dated 2025).

Experiments:
Sprague-Dawley rats = test: Echocardiography in rat model of DOXO-induced cardiotoxicity; format: in vivo; details: DOXO-treated animals not receiving SH
Protocol: For in vivo experiments, considering that a water intake for adult rat is about 30-40 ml/day, 1.25 gr of SH extract was diluted in 300 ml of water, achieving a daily dose of […] (extract/body weight).
Adult female Sprague-Dawley rats (250-300 g body weight) were injected with six intraperitoneal doses of DOXO (Sigma) delivered at regular intervals from Day 1 to Day 11 (cumulative dose=15 mg/kg). During the treatment, rats were given ad libitum access to water containing SH. Rats received a daily dose of about 0.5 mg/Kg of SH.
Echocardiographic assessment, animals were anaesthetized at the indicated time points with 2.0-2.5% isoflurane. Transthoracic echocardiography was performed using the Vevo 2100 high-resolution imaging system (VisualSonic) equipped with a 13-24-MHz linear transducer. Analyses were performed on Days 0 (baseline), 12, 19. Two-dimensional short-axis M-mode echocardiography was performed. All M-mode tracing measurements were averaged from a minimum of three cardiac cycles. Investigators were blinded to the animals' identity.

Protocol for beating human iPS-CM: Traces were recorded every 24 hours for 7 consecutive days from the beginning of the DOXO treatment (day 0-3 h).

**Q.** For `COc1cccc2c1C(=O)c1c(O)c3c(c(O)c1C2=O)C[C@@](O)(C(=O)CO)C[C@@H]3O[C@H]1C[C@H](N)[C@H](O)[C@H](C)O1` [DOXO, Doxorubicin], which “left end systolic volume (LVESV)” value (Sprague-Dawley rats) is on record?
**A.** The value was “increased over time”.

**Q.** And the “left ventricular ejection fraction (LVEF)” value (Sprague-Dawley rats)?
**A.** The value was “significant decrease”.

**Q.** And the QT interval (beating human iPS-CM)?
**A.** Its QT interval is “induces prolongation on QT interval”.
